Values of other authors as cited in patent US11446408B2, “Composition and methods for antimicrobial articles” (priority 2011, dated 2022).

Experiments:
Settings in all cases: 10 minutes at 25 degrees Celsius
enteric bacteria = test system: enteric bacteria
amoebic cysts = test system: amoebic cysts
enteric viruses = test system: enteric viruses

## II [iodine]
Enteric bacteria
  iodine sufficient to kill enteric bacteria: 0.2 PPM
Amoebic cysts
  iodine sufficient to kill amoebic cysts: 3.5 PPM
Enteric viruses
  iodine sufficient to kill enteric viruses: 14.6 PPM
